Several values for one entry are separate records, joined by “and”; a condition that tells them apart may be missing. Equal values may be shown once.
How the values were obtained:
[1] = system: interscapular BAT; test: Top-down whole-organism NIR fluorescence screening of dyes (ROI1/ROI2 contrast); type: in vivo, nude mice; settings: for visible contrast around the interscapular BAT area: in vivo NIR images; for Ratio AVERAGE (mean ratio ROI1/ROI2): i.v., mean of three filter pairs, hit threshold >1.10
Description: 38 fluorescent dyes from commercial resources and from the inventors' laboratory were screened. Dyes with excitation range of 550-745 nm, emission range of 600-840 nm, and with molecular weight of less than 700 Da (except Cy5.5) (representative dyes are listed in FIG. 1d and the full list is shown in Table 2). Their hydrophobicities were not determined. The library was screened by intravenous tail injection of compounds into nude mice (10μg/mouse). Each dye was imaged with three optimized excitation/emission filter-pairs, and images at one hour after i.v. injection were acquired.
Top-down whole organism screening was performed as follows. Nude mice (nu/nu COX7) were purchased from Massachusetts General Hospital and Balb/c mice were from Jackson Laboratory. All animal experimental procedures were approved by the Institutional Animal Care and Use Committee (IACUC) at Massachusetts General Hospital. Dye stock solutions were prepared in DMSO. The final injection solution (0.1 mg/ml) was freshly prepared in a mixed solution of 20% DMSO, 20% Cremophor EL and 60% saline. Nude mice (n=5) were injected with a 100 μL dye solution via tail vein. For each imaging session, mice were anesthetized with a mixture of oxygen and isoflurane for 5 minutes, and then positioned into the imaging chamber of IVIS® Spectrum in vivo pre-clinical imaging system. Images were acquired at one-hour post-injection using sequence imaging with three excitation/emission filter pairs for each dye.
Hits selection was performed as follows. Hits from cell- or protein-based screening are usually selected by setting certain threshold. In the case of the top-down imaging screening, two methods were used (threshold and visible contrast) to select hits. First, three images obtained with three excitation/emission pairs were selected for each dye. These ex/em pairs were selected from the closest excitation and emission wavelengths of the tested dyes. For instance, 605/660 nm, 605/680 nm, 640/680 nm were selected for image acquisition of Nile blue (625/660 nm). The quantification of contrast for each image was calculated as a ratio of two ROIs (region of interest). ROI1 reflected the average signal from interscapular BAT and ROI2 was the average signal of the area that included BAT and white adipose tissue (WAT) around the interscapular site (FIG. 1b, left). The averaged fluorescent signal of ROI was used instead of the total signal, because the total signal depends on the area of ROI, whereas the averaged signal reflects the density of signal. The ratio of ROI1/ROI2 could reflect the signal/noise ratio of the tested probe, and could also reflect the selectivity of the probe for BAT over WAT. For each dye, three ROI1/ROI2 ratios obtained with the three filter pairs were calculated. The mean of the ratios was used as the threshold. If the mean ratio was >1.10, the dye was selected as a potential positive hit (FIG. 1c). Since the contrast of a dye in the top-down screening is in the visible range, the visible contrast around the interscapular BAT area was also tested for the hits with the mean ratio of >1.10. If both mean ratio and the visible contrast were positive, then the hit was subjected to re-testing procedure to validate its reliability as described below.
Although CRANAD-2 and CRANAD-3 were able to provide certain contrast for BAT in vivo, their excitation and emission wavelengths were still shorter than required for an ideal NIR imaging probe (both excitation and emission >640 nm). […] To seek better probes, a sub-library was synthesized based on the structures of the lead probes CRANAD-2 and -3. CRANAD-6, -19, -22, -24, -26, -32 and -43 were synthesized and tested (images and chemical structures, excitation and emission spectra are shown in FIG. 9 a-e). […] However, the ROI1/ROI2 ratio of CRANAD-22 was not improved (FIG. 9c).

[2] = system: interscapular BAT; test: Re-testing of hits with stepwise dissection and NIR imaging; type: in vivo, mice
Description: Like protein/cell-based screening, hit re-testing experiments were conducted to validate the reliability of this approach. CRANAD-2, -3, LDS 722 and Rhodamine 640 were subjected to re-testing by repeating the above imaging procedure. Images were acquired one hour after probe injection.
Next, stepwise dissection and imaging were performed to track the source of the fluorescence contrast at the interscapular site. Skin and the thin WAT layer that covers BAT were first removed, and then BAT was dissected, and NIR images were captured at each step. […] The signal contribution from BAT (R(BAT)) was roughly estimated using the ratio of fluorescence signals acquired after (F(BAT)) and before (F(intact)) the first step dissection of skin and WAT.

[3] = system: differentiated 3T3-L1 cells; test: Probe uptake in differentiated 3T3-L1 cells (IVIS and two-photon imaging, competition); type: cell-based; settings: for uptake with triglyceride competition: triglyceride added with probe, two-photon microscopy and IVIS
Description: To investigate the facilitated diffusion of CRANAD-2, the time courses of CRANAD-2 uptake in 3T3-L1 cells were compared before and after differentiation. Two-photon imaging for 3T3-L1 cells was performed as follows. Fibroblast 3T3-L1 cells were differentiated following the protocol provided by Zenbio, Inc. (protocol No. ZBM0009.02). Ten microliters of CRANAD-2 (250 μM in DMSO) was added to the differentiated cells (1.0 ml). Cells were imaged after 10 min of incubation. A 940 nm laser was first used to capture an image for CRANAD-2 in 570-620 nm channel (Prairie Two-photon microscope, Middleton, Wis.). Next, the laser was tuned to 750 nm to capture autofluorescence of the cells to outline cell morphology.
For triglyceride competition, stock solutions of CRANAD-2 (250 μM) and triglyceride (5 mM) in DMSO were prepared. Before imaging, 10 μl of the stock solution was added to the cells.
IVIS imaging of 3T3-L1 cells with CRANAD-2 was performed as follows. To a 6-well plate seeded with preadipocytes or differentiated adipocytes, a 10 μL solution of CRANAD-2 (250 μM in DMSO) was added. The plate was subjected to imaging using IVIS imaging system with Ex=605 nm, Em=660 nm before and after addition of CRANAD-2. For triglyceride competition, the same protocol for two-photon imaging was used. The images were acquired at 20 min after addition of CRANAD-2. Studies were performed in triplicate.
The uptake of CRANAD-29 in 3T3-L1 cells before and after differentiation was compared. IVIS imaging of 3T3-L1 cells with CRANAD-29 was performed as follows. To a 6-well plate seeded with preadipocytes or differentiated adipocytes, a 10 μL solution of CRANAD-29 (250 μM in DMSO) was added. The plate was subjected to imaging using IVIS imaging system with Ex=640 nm, Em=700 nm before and after addition of CRANAD-29. For triglyceride competition and Hexarelin inhibition, the similar protocol for CRANAD-2 imaging was used. The final concentration of hexarelin was 12.5 μM, and the images were acquired at 3 hours after addition of CRANAD-29 and triglyceride/Hexarelin. Studies were performed in triplicate.

[4] = nude mice, one hour post-injection

For `CN(C)c1ccc(/C=C/C2=CC(=C/C=C3C=CC(=[N+](C)C)C=C3)/O[B-](F)(F)O2)cc1` [CRANAD-2], the “visible contrast around the interscapular BAT area” value [1] was “best contrast and clear triangular contour”, the “Ratio No 1 (ROI1/ROI2 average fluorescence intensity)” value ([1]; nude mice, 10 μg/mouse i.v., one hour post-injection, first excitation/emission filter pair) was 1.31E+00 and the “Ratio No 2 (ROI1/ROI2 average fluorescence intensity)” value ([1]; nude mice, 10 μg/mouse i.v., one hour post-injection, second excitation/emission filter pair) was 1.26E+00. For the same compound, the “Ratio No 3 (ROI1/ROI2 average fluorescence intensity)” value ([1]; nude mice, 10 μg/mouse i.v., one hour post-injection, third excitation/emission filter pair) was 1.26E+00, the “Ratio AVERAGE (mean ratio ROI1/ROI2)” value [1, 4] was 1.28 and 1.28E+00 and the “R(BAT), signal contribution from BAT, F(BAT)/F(intact)” value ([2]; fluorescence after vs before dissection of skin and WAT, roughly estimated) was “about 0.26”. For the same compound, the “contrast among the re-tested dyes” value ([2]; images one hour after probe injection) was “highest contrast”, the “fluorescence signal from BAT (before vs after BAT removal)” value ([2]; stepwise dissection) was “able to label BAT” and the “selectivity for BAT (over WAT)” value ([2]; stepwise dissection) was “low”. For the same compound, the “time to uptake plateau” value ([3]; differentiated 3T3-L1 cells) was 15 min, the “uptake within 1 minute, of the maximal” value ([3]; differentiated 3T3-L1 cells) was 62% and the “uptake with triglyceride competition” value [3] was “significant decrease in uptake”.
In the case of `F[B-]1(F)OC(/C=C/c2cc3c4c(c2)CCCN4CCC3)=CC(/C=C/c2cc3c4c(c2)CCCN4CCC3)=[O+]1` [CRANAD-29], the “visible contrast around the interscapular BAT area” value [1] is reported as “excellent contrast and a very clear contour of BAT”, the “Ratio AVERAGE (mean ratio ROI1/ROI2)” value [1, 4] is reported as 1.36 and the “F(BAT)/F(intact) ratio compared with CRANAD-2 and -3” value ([2]; stepwise dissection) is reported as “much higher”. The “selectivity for BAT (over WAT)” value ([2]; stepwise dissection) was “excellent selectivity”, the “time to uptake plateau” value ([3]; differentiated 3T3-L1 cells) was “around 90 minute” and the “reduction of uptake in glutaraldehyde-fixed cells” value ([3]; differentiated 3T3-L1 cells fixed with glutaraldehyde) was 70%. For the same compound, the “uptake with Hexarelin (CD36 specific ligand)” value ([3]; hexarelin 12.5 μM, images at 3 hours) was “significantly inhibited by Hexarelin” and the “uptake with triglyceride competition” value [3] was “significantly reduced by triglyceride”.

— patent US9757477B2, “Imaging brown adipose tissue with curcumin derivatives” (The General Hospital Corporation, priority 2013, dated 2017)
